Experimental data as given in PMC9081086, “Stapling strategy enables improvement of antitumor activity and proteolytic stability of host-defense peptide hymenochirin-1B” (RSC Advances, 2018).
Positions of bridges follow the written chain, without caps; N, C: chain ends. Non-standard residues stand in square brackets, D forms with d. Residues, ends and D or L forms follow the SMILES beside them. R8 = C=CCCCCCC[C@@](C)(N)C(=O)O; S5 = C=CCCC[C@](C)(N)C(=O)O

Experiments:
[1] = tested on: human normal Lung cell BEAS-2; experiment: MTT toxicity against normal cells, BEAS-2B; format: cell-based; conditions: 96 h
Description: (§1) Anti-tumor activity was evaluated by the standard MTT assay with a slight modification measuring the median inhibitory concentration (IC50) values.[35] HCT-116 cells, HepG2 cells and A549 cells were plated in triplicate wells into a 96-well plate at 5 × 10^3/well and cultured routinely for 24 h. Cells were incubated with increasing concentrations of hymenochirin-1B and its analogs (0.1–30 μM) and continued to culture with DMEM plus 10% FBS at 37 °C and 5% CO2. After being incubated for 96 h, the absorbance A value was determined by MTT at 540 nm. The untreated HCT-116 cells, HepG2 cells and A549 cells were used as control. Each experiment was performed in duplicate. The inhibitory rate was calculated according to the following formula: inhibitory rate = (a value of the control group − a value of the study group)/a value of the control group × 100%.
(§2) To further research the selectivity of these peptides towards cancer cells over normal cells. The growth-inhibitory activities of peptides were evaluated using the 3-(4,5-dimethylthiazol-2-yl)-2,5-diphenyltetrazolium bromide (MTT) assay against three normal cells,[35] namely, human normal liver cell LO-2, human normal Lung cell BEAS-2 and human normal kidney cell 293 T (Table S2 ^†). The experiments procedure was performed just same as growth inhibition of the peptides against tumor cells. […] It might be due to the higher averaged hydrophobicity produced by six or nine additional methylene and two olefinic carbons to the peptide to increase toxicity to human normal cells. This situation may be resolved through the addition of polar character and glycosylation into the sequence to decrease the averaged hydrophobicity to improve the selectivity of these peptides towards cancer cells over normal cells. These modifications of these peptides are under way, and the present study was focused on the improved anti-tumor activity of template peptide hymenochirin-1B.

[2] = Circular dichroism, α-helicity; format: physicochemical; conditions: CD, TFE/water (1:1), 50 μM peptide, 25 °C, 1 mm cuvette, calculated from [θ]222
Description: The linear and stapled peptides were dissolved in the trifluoroethanol (TFE) and water (1 : 1) to a final concentration of 50 μM, respectively. The CD spectra were obtained with 1 mm quartz cuvette on Jasco-815 spectropolarimeter at 25 °C. The measurement parameters were set up as follows: wavelength, 185–260 nm; step resolution, 0.5 nm; speed, 20 nm min^−1. All spectra were converted to a uniform scale of molar ellipticity after background subtraction. The curves were smoothed using standard parameters. The ellipticity in the acquired CD spectra was converted to the molar ellipticity using the equation: [θ] = θ/(10 × c × l), where, [θ] is the Molar ellipticity (deg cm^2. d mol^−1), θ is the observed ellipticity corrected for the buffer at a given wavelength (m deg), c is the molar concentration and l is the path length (cm). The helicity of each peptide was calculated as described in a literature based on the ellipticity of the peptide's spectrum at 222 nm and the number of amino acids in the peptide sequence.
Circular dichroism (CD) spectroscopy was used to investigate the secondary structures of the stapled and template peptides to probe structural changes induced by conformation constraint in a membrane-like milieu, including […] (TFE) and water (1 : 1). […] (Table 1, ESI ^†).

[3] = tested on: human normal kidney cell 293 T; experiment: MTT toxicity against normal cells, 293T; format: cell-based; conditions: 96 h
Description: as §1, §2

[4] = tested on: human normal liver cell LO-2; experiment: MTT toxicity against normal cells, LO-2; format: cell-based; conditions: 96 h
Description: as §1, §2

CC[C@H](C)[C@H](N)C(=O)N[C@@H](CCCCN)C(=O)N[C@@H](CC(C)C)C(=O)N[C@@H](CO)C(=O)N1CCC[C@H]1C(=O)N[C@@H](CCC(=O)O)C(=O)N[C@H](C(=O)N[C@@H](CCCCN)C(=O)N[C@@H](CC(=O)O)C(=O)N[C@@H](CC(N)=O)C(=O)N[C@@H](CC(C)C)C(=O)N[C@@H](CCCCN)C(=O)N[C@@H](CCCCN)C(=O)N[C@H](C(=O)N[C@@H](CC(C)C)C(=O)N[C@@H](CCCCN)C(=O)NCC(=O)N[C@@H](C)C(=O)N[C@H](C(=O)N[C@]1(C)CCCCCCC=CCCC[C@@](C)(C(=O)N[C@@H](CCSC)C(=O)N[C@H](C(N)=O)C(C)C)NC(=O)[C@H](C)NC(=O)[C@H](C(C)C)NC(=O)[C@H](C)NC(=O)[C@H]([C@@H](C)CC)NC(=O)[C@H](C)NC(=O)CNC1=O)[C@@H](C)CC)C(C)C)[C@@H](C)O [H-6] (H-IKLSPETKDNLKKVLKGAI[R8]GAIAVA[S5]MV-NH2; staple 20-27)
IC50 (μM) BEAS-2B, toxicity against normal cells [1]: 46.58 ± 0.42 µM | Helicity (%) [2]: 64.9% | IC50 (μM) 293T, toxicity against normal cells [3]: 60.11 ± 0.35 µM | IC50 (μM) LO-2, toxicity against normal cells [4]: 49.77 ± 0.22 µM

CC[C@H](C)[C@H](N)C(=O)N[C@@H](CCCCN)C(=O)N[C@@H](CC(C)C)C(=O)N[C@@H](CO)C(=O)N1CCC[C@H]1C(=O)N[C@@H](CCC(=O)O)C(=O)N[C@H](C(=O)N[C@@H](CCCCN)C(=O)N[C@@H](CC(=O)O)C(=O)N[C@@H](CC(N)=O)C(=O)N[C@@H](CC(C)C)C(=O)N[C@@H](CCCCN)C(=O)N[C@@H](CCCCN)C(=O)N[C@H](C(=O)N[C@@H](CC(C)C)C(=O)N[C@@H](CCCCN)C(=O)N[C@@]1(C)CCCC=CCCC[C@@](C)(C(=O)N[C@@H](C)C(=O)N[C@H](C(=O)N[C@@H](C)C(=O)N[C@H](C(=O)N[C@@H](C)C(=O)N[C@@H](CCCCN)C(=O)N[C@@H](CCSC)C(=O)N[C@H](C(N)=O)C(C)C)C(C)C)[C@@H](C)CC)NC(=O)[C@H](CCCCN)NC(=O)[C@H]([C@@H](C)CC)NC(=O)[C@H](C)NC1=O)C(C)C)[C@@H](C)O [H-9] (H-IKLSPETKDNLKKVLK[S5]AIK[S5]AIAVAKMV-NH2; staple 17-21)
IC50 (μM) BEAS-2B, toxicity against normal cells [1]: 7.72 ± 0.36 µM | IC50 (μM) 293T, toxicity against normal cells [3]: 8.66 ± 0.23 µM | IC50 (μM) LO-2, toxicity against normal cells [4]: 8.56 ± 0.32 µM

CC[C@H](C)[C@H](N)C(=O)N[C@@H](CCCCN)C(=O)N[C@@H](CC(C)C)C(=O)N[C@@H](CO)C(=O)N1CCC[C@H]1C(=O)N[C@@H](CCC(=O)O)C(=O)N[C@H](C(=O)N[C@@H](CCCCN)C(=O)N[C@@H](CC(=O)O)C(=O)N[C@@H](CC(N)=O)C(=O)N[C@@H](CC(C)C)C(=O)N[C@@H](CCCCN)C(=O)N[C@@H](CCCCN)C(=O)N[C@H](C(=O)N[C@@H](CC(C)C)C(=O)N[C@@H](CCCCN)C(=O)N[C@]1(C)CCCCCCC=CCCC[C@@](C)(C(=O)N[C@H](C(=O)N[C@@H](C)C(=O)N[C@@H](CCCCN)C(=O)N[C@@H](CCSC)C(=O)N[C@H](C(N)=O)C(C)C)C(C)C)NC(=O)[C@H]([C@@H](C)CC)NC(=O)[C@H](C)NC(=O)CNC(=O)[C@H](CCCCN)NC(=O)[C@H]([C@@H](C)CC)NC(=O)[C@H](C)NC1=O)C(C)C)[C@@H](C)O [H-4] (H-IKLSPETKDNLKKVLK[R8]AIKGAI[S5]VAKMV-NH2; staple 17-24)
Helicity (%) [2]: 66.3%
